From US20020137929A1, “1 - (3-heterocyclylphenyl) isothiourea, -isourea, -guanidine and -amidine herbicidal agents” (Intellectual Property Department, BASF Aktiengesellschaft, priority 1998, published 2002)

Experiments:
[1] = test system: MOOVA (Monochoria); experiment: Postemergence weed control under flooded paddy conditions; type: in vivo, Monochoria vaginalis; details: postemergence weeds
Description: Results of herbicide evaluation are expressed on a rating scale (0-9). The scale is based upon a visual observation of plant stand, vigor, malformation, size, chlorosis and overall plant appearance as compared with a control.
Plastic containers containing weeds which are 3 to 5 cm tall and rice seedlings at the 1.5 to 2.5 leaf stage are flooded with water. The water is maintained at 1.5 to 3 cm above the soil surface for the duration of the experiment. Test compounds are applied as aqueous/ acetone mixtures 50/50 v/v directly into the flood water to provide the equivalent of about 0.0313 to 0.500 kg/ha of active ingredient. The treated containers are placed on greenhouse benches and cared for in accordance with conventional greenhouse procedures. Three to four weeks after treatment, the test is terminated and each container is examined and herbicidal effect rated according to the rating system provided in Example 37. The compounds evaluated are reported by compound number given in Example 37.

[2] = test system: CYPIR (Rice Flatsedge); experiment: Preemergence weed control under flooded paddy conditions; type: in vivo, Cyperus iria; details: rated 3-4 weeks after treatment
Procedure, shortened: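 Silt loam, seeds in top 0.5 cm; flood held 1.5-3 cm; test cpd as acetone/water 50/50 into flood water, ~0.0313-0.500 kg/ha a.i.; greenhouse 3-4 wk; visual 0-9 score vs control.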

[3] = test system: AMBEL (Ragweed, Common); experiment: Preemergence herbicidal evaluation; type: in vivo, Ambrosia artemisifolia; details: rated 4-5 weeks after treatment
Procedure, shortened: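 Preemergence soil application of compound, sprayed in aqueous acetone at rates equivalent to about 0.0156 to 0.500 kg per hectare onto freshly sown cups. Plant response was judged by eye on a 0-9 scale four to five weeks later.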

[4] = rate 0.0313 kg/ha, 3-4 weeks after treatment
[5] = rate 0.0625 kg/ha, 3-4 weeks after treatment
[6] = rate 0.1250 kg/ha, 3-4 weeks after treatment
[7] = rate 0.2500 kg/ha, 3-4 weeks after treatment

Row | SMILES | herbicidal effect rating, CYPIR ([2]; 0.0313 kg/ha) | herbicidal effect rating, CYPIR ([2]; 0.0625 kg/ha) | herbicidal effect rating, CYPIR ([2]; 0.1250 kg/ha) | herbicidal effect rating, CYPIR ([2]; 0.2500 kg/ha) | Preemergence herbicidal rating AMBEL ([3]; 0.0156 kg/ha) | Preemergence herbicidal rating AMBEL ([3]; 0.0313 kg/ha) | Preemergence herbicidal rating AMBEL ([3]; 0.0625 kg/ha) | Preemergence herbicidal rating AMBEL ([3]; 0.1250 kg/ha) | Preemergence herbicidal rating AMBEL ([3]; 0.2500 kg/ha) | also measured
1 | CCOC(=O)CN1C(=O)CSC1=Nc1cc(-n2c(=O)cc(C(F)(F)F)n(C)c2=O)c(F)cc1Cl [Compound 8, Ethyl 2-{{2-chloro-5-[3,6-dihydro-3-methyl-2,6-dioxo-4-(trifluoromethyl)-1(2H)pyrimidinyl]-4-fluorophenyl}imino}-4-oxo-3-thiazolidineacetate] | – | – | – | – | – | – | – | – | – | Herbicidal rating MOOVA [1, 4]: 9.0; Herbicidal rating MOOVA [1, 5]: 9.0; Herbicidal rating MOOVA [1, 6]: 9.0; Herbicidal rating MOOVA [1, 7]: 9.0; Herbicidal rating CYPIR ([2]; 0.0313 kg/ha): 0.0; Herbicidal rating CYPIR ([2]; 0.0625 kg/ha): 0.0; Herbicidal rating CYPIR ([2]; 0.1250 kg/ha): 0.0; Herbicidal rating CYPIR ([2]; 0.2500 kg/ha): 4.0; AMBEL preemergence herbicidal rating ([3]; rate 0.0156 kg/ha): 1.6; AMBEL preemergence herbicidal rating ([3]; rate 0.0313 kg/ha): 4.5; AMBEL preemergence herbicidal rating ([3]; rate 0.0625 kg/ha): 5.7; AMBEL preemergence herbicidal rating ([3]; rate 0.1250 kg/ha): 8.5; AMBEL preemergence herbicidal rating ([3]; rate 0.2500 kg/ha): 8.9; AMBEL preemergence herbicidal rating ([3]; rate 0.5000 kg/ha): 9.0
2 | CCOC(=O)CN1C(=O)C(CC(=O)OC(C)C)SC1=Nc1cc(-n2c(=O)cc(C(F)(F)F)n(C)c2=O)c(F)cc1Cl (centres unmarked) [Compound 55, 2-{{2-Chloro-5-[3,6-dihydro-3-methyl-2,6-dioxo-4-(trifluoromethyl)-1(2H)-pyrimidinyl]-4-fluoro-phenyl}imino}-4-oxo-3,5-thiazolidinediacetic acid, 3-ethyl isopropyl ester] | – | – | – | – | – | – | – | – | – | Herbicidal rating MOOVA [1, 4]: 9.0; Herbicidal rating MOOVA [1, 5]: 9.0; Herbicidal rating MOOVA [1, 6]: 9.0; Herbicidal rating MOOVA [1, 7]: 9.0; Herbicidal rating CYPIR ([2]; 0.0313 kg/ha): 9.0; Herbicidal rating CYPIR ([2]; 0.0625 kg/ha): 9.0; Herbicidal rating CYPIR ([2]; 0.1250 kg/ha): 9.0; Herbicidal rating CYPIR ([2]; 0.2500 kg/ha): 9.0
3 | C=CCN1C(=O)C(CC(=O)NS(=O)(=O)c2ccccc2)SC1=Nc1cc(-n2c(=O)cc(C(F)(F)F)n(C)c2=O)c(F)cc1Cl (centres unmarked) [Compound 101, 3-Allyl-2-{{2-chloro-5-[3,6-dihydro-3-methyl-2,6-dioxo-4-(trifluoromethyl)-1(2H)-pyrimidinyl]-4-fluorophenyl}imino}-4-oxo-N-(phenylsulfonyl)-5-thiazolidineacetamide] | – | – | – | – | – | – | – | – | – | Herbicidal rating MOOVA ([1]; Rate 0.0313 kg/ha, rated 3 to 4 weeks after treatment): 5.0; Herbicidal rating MOOVA ([1]; Rate 0.0625 kg/ha, rated 3 to 4 weeks after treatment): 5.0; Herbicidal rating MOOVA ([1]; Rate 0.1250 kg/ha, rated 3 to 4 weeks after treatment): 7.0; Herbicidal rating MOOVA ([1]; Rate 0.2500 kg/ha, rated 3 to 4 weeks after treatment): 9.0; Herbicidal rating MOOVA ([1]; Rate 0.5000 kg/ha, rated 3 to 4 weeks after treatment): 9.0; CYPIR herbicidal effect rating ([2]; 0.0313 kg/ha): 0.0; CYPIR herbicidal effect rating ([2]; 0.0625 kg/ha): 0.0; CYPIR herbicidal effect rating ([2]; 0.1250 kg/ha): 0.0; CYPIR herbicidal effect rating ([2]; 0.2500 kg/ha): 3.0; CYPIR herbicidal effect rating ([2]; 0.5000 kg/ha): 4.0
4 | C=C1SC(=Nc2cc(-n3c(=O)cc(C(F)(F)F)n(C)c3=O)c(F)cc2Cl)N(CC(=O)OCC)C1=O [Compound 154] | 2.0 | 3.0 | 4.0 | 6.0 | – | – | – | – | – | Preemergence herbicidal rating AMBEL ([3]; rate 0.0156 kg/ha, rating scale 0-9): 3.0; Preemergence herbicidal rating AMBEL ([3]; rate 0.0313 kg/ha, rating scale 0-9): 5.0; Preemergence herbicidal rating AMBEL ([3]; rate 0.0625 kg/ha, rating scale 0-9): 9.0; Preemergence herbicidal rating AMBEL ([3]; rate 0.1250 kg/ha, rating scale 0-9): 9.0; Preemergence herbicidal rating AMBEL ([3]; rate 0.2500 kg/ha, rating scale 0-9): 9.0
5 | CCN1C(=O)CSC1=Nc1cc(-n2c(=O)cc(C(F)(F)F)n(C)c2=O)c(F)cc1Cl [Compound 159, 3-{4-Chloro-5-[(3-ethyl-4-oxo-2-thiazolidinyl-idene)amino]-2-fluorophenyl}-1-methyl-6-(trifluoromethyl)-2,4(1H,3H)-pyrimidinedione] | 0.0 | 0.0 | 3.0 | 4.0 | 1.0 | 3.0 | 4.0 | 6.0 | 8.0 | –
6 | CCOC(=O)CN1C(=O)C(OC)SC1=Nc1cc(-n2c(=O)cc(C(F)(F)F)n(C)c2=O)c(F)cc1Cl (centres unmarked) [Compound 160, Ethyl 2-{{2-chloro-5-[3,6-dihydro-3-methyl-2,6-dioxo-4-(trifluoromethyl)-1(2H)-pyrimidinyl]-4-fluorophenyl}imino}-5-methoxy-4-oxo-3-thiazolidineacetate] | 0.0 | 3.0 | 6.0 | 9.0 | 7.0 | 6.0 | 9.0 | 9.0 | 9.0 | Preemergence herbicidal rating AMBEL ([3]; 0.5000 kg/ha): 9.0
7 | CC(C)N1C(=O)CSC1=Nc1cc(-n2c(=O)cc(C(F)(F)F)n(C)c2=O)c(F)cc1Cl [Compound 164, 3-{4-Chloro-2-fluoro-5-[(3-isopropyl-4-oxo-2-thiazolidinylidene)amino]phenyl}-1-methyl-6-(trifluoromethyl)-2,4(1H,3H)-pyrimidinedione] | 3.0 | 5.0 | 6.0 | 9.0 | 6.0 | 7.0 | 7.0 | 7.0 | 9.0 | Preemergence herbicidal rating AMBEL ([3]; 0.5000 kg/ha): 9.0
8 | Cn1c(C(F)(F)F)cc(=O)n(-c2cc(N=C3SCC(=O)N3C3CCCC3)c(Cl)cc2F)c1=O [Compound 166, 3-{4-Chloro-5-[(3-cyclopentyl-4-oxo-2-thiazolidinylidene)amino]-2-fluorophenyl}-1-methyl-6-(trifluoromethyl)-2,4(1H,3H)-pyrimidinedione] | 2.0 | 2.0 | 6.0 | 9.0 | 1.0 | 0.0 | 3.0 | 6.0 | 7.0 | Preemergence herbicidal rating AMBEL ([3]; 0.5000 kg/ha): 7.0
9 | Cn1c(C(F)(F)F)cc(=O)n(-c2cc(N=C3SCC(=O)N3C3CCC3)c(Cl)cc2F)c1=O [Compound 168, 3-{4-Chloro-5-[(3-cyclobutyl-4-oxo-2-thiazolidinylidene)amino]-2-fluorophenyl}-1-methyl-6-(trifluoromethyl)-2,4(1H,3H)-pyrimidinedione] | 0.0 | 0.0 | 0.0 | 0.0 | 0.0 | 0.0 | 0.0 | 0.0 | 5.0 | –
10 | CCOC(=O)CN1C(=O)C(CC(=O)O)SC1=Nc1cc(N2C(=O)CC(C(F)(F)F)CC2=O)c(F)cc1Cl (centres unmarked) [Compound 170, 2-{{2-Chloro-5-[2,6-dioxo-4-(trifluoromethyl)-piperidino]-4-fluorophenyl}imino}-4-oxo-3,5-thiazolidinediacetic acid, 3-ethyl ester] | 9.0 | 9.0 | 9.0 | 9.0 | 0.0 | 0.0 | 4.0 | 9.0 | 9.0 | –
11 | COCCCN1C(=O)CSC1=Nc1cc(-n2c(=O)cc(C(F)(F)F)n(C)c2=O)c(F)cc1Cl [Compound 172, 3-{4-Chloro-2-fluoro-5-{[3-(3-methoxypropyl)-4-oxo-2-thiazolidinylidene]amino}phenyl}-1-methyl-6-(trifluoromethyl)-2,4(1H, 3H)-pyrimidinedione] | 5.0 | 7.0 | 8.0 | 9.0 | 5.0 | 7.0 | 9.0 | 9.0 | 9.0 | –
